Data from patent US9421194B2, “Lung targeting dual drug delivery system” (priority 2010, dated 2016).

Key:
[1] = Systemic (plasma) concentration of CPT after single bolus IV injection; assay type: in vivo, rats; conditions: free CPT IV, 2 mg/kg
Method: FIG. 9 illustrates systemic (plasma) concentration of camptothecin (CPT) as a function of time after a single bolus IV injection of CPT-Nva-MPs (CPT dose=0.2 mg/kg) (squares) and free CPT (2 mg/kg) (triangles). Values are reported as mean±SD. The lower limit of quantitation was 0.1 ng/mL.
PEGylated 6 μm polystyrene MPs with three copies of the norvaline (Nva) α-amino acid prodrug of CPT were prepared. […] Referring to FIG. 10, anti-cancer efficacy was evaluated in an orthotopic rat lung cancer model and compared to a bolus injection of CPT. One week after A549 cell inoculation, nude rats were injected IV with CPT-Nva-MPs (50 and 100 mg/kg equivalent to CPT at 0.11 mg/kg and 0.22 mg/kg), free CPT (2 mg/kg) or vehicle control (saline containing 0.1% Tween 80). The treatment was conducted every 3 days for 27 days. The day after the last treatment, all animals were euthanized, and organs (lung, heart, […], spleen and […]) were dissected and weighed. The organs were fixed in 10% neutral buffered formalin for H&E staining. […] In addition, 40% of the animals receiving CPT-Nva-MPs (0.22 mg/kg) were free of cancer. […] See references 74 and 86, which are incorporated herein by reference as if fully set forth.

[2] = tested on: A549 cell orthotopic lung cancer; assay: Anti-cancer efficacy in orthotopic rat lung cancer model; assay type: in vivo, nude rats; conditions: 2 mg/kg IV every 3 days for 27 days; p<0.05
Method: PEGylated 6 μm polystyrene MPs with three copies of the norvaline (Nva) α-amino acid prodrug of CPT were prepared. […] The treatment was conducted every 3 days for 27 days. The day after the last treatment, all animals were euthanized, and organs (lung, heart, […], spleen and […]) were dissected and weighed. The organs were fixed in 10% neutral buffered formalin for H&E staining. […] See references 74 and 86, which are incorporated herein by reference as if fully set forth.

## CC[C@@]1(O)C(=O)OCc2c1cc1n(c2=O)Cc2cc3ccccc3nc2-1 [free CPT, camptothecin]
[1]
  systemic CPT exposure (in words): high but short-lived systemic exposures
[2]
  area of lung cancer versus untreated animals: smaller areas of lung cancer
